In PubChem BioAssay AID1963839 (Molecular Pharmacology Branch, DTP, NCI, 2024):
pIC50: −log10 of the molar value.

System: 817829-284-R-J1-PDC complex spheroid viability
Assay: Anticancer human tumor 817829-284-R-J1-PDC patient-derived colon adenocarcinoma cell line growth inhibition [POLQ]
Settings: for pIC50: curve of first compound; for viability, T/C: stronger effect = lower value; active means viability on the fitted dose curve at most 10% of control; inactive means the rest
Procedure, shortened: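 Growth inhibition in 3D: complex spheroids (tumor PDC, HUVEC, MSC) treated with POLQ inhibitor combinations; where Cmax unknown, highest tested concentration 10 microM, except SN-38 at 1 microM.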

[1] = second compound 0.0316 µM, first compound 0.0316 µM
[2] = second compound 0.0316 µM, first compound 0.1 µM
[3] = second compound 0.0316 µM, first compound 0.316 µM
[4] = second compound 0.0316 µM, first compound 1 µM
[5] = second compound 0.0316 µM, first compound 3.16 µM
[6] = second compound 0.0316 µM, first compound 10 µM
[7] = second compound 0.1 µM, first compound 0.0316 µM
[8] = second compound 0.1 µM, first compound 0.1 µM
[9] = second compound 0.1 µM, first compound 0.316 µM
[10] = second compound 0.1 µM, first compound 1 µM
[11] = second compound 0.1 µM, first compound 3.16 µM
[12] = second compound 0.1 µM, first compound 10 µM
[13] = second compound 0.316 µM, first compound 0.0316 µM
[14] = second compound 0.316 µM, first compound 0.1 µM
[15] = second compound 0.316 µM, first compound 0.316 µM
[16] = second compound 0.316 µM, first compound 1 µM
[17] = second compound 0.316 µM, first compound 3.16 µM
[18] = second compound 0.316 µM, first compound 10 µM
[19] = second compound 1 µM, first compound 0.0316 µM
[20] = second compound 1 µM, first compound 0.1 µM
[21] = second compound 1 µM, first compound 0.316 µM
[22] = second compound 1 µM, first compound 1 µM
[23] = second compound 1 µM, first compound 3.16 µM
[24] = second compound 1 µM, first compound 10 µM
[25] = second compound 3.16 µM, first compound 0.0316 µM
[26] = second compound 3.16 µM, first compound 0.1 µM
[27] = second compound 3.16 µM, first compound 0.316 µM
[28] = second compound 3.16 µM, first compound 1 µM
[29] = second compound 3.16 µM, first compound 3.16 µM
[30] = second compound 3.16 µM, first compound 10 µM
[31] = second compound 10 µM, first compound 0.0316 µM
[32] = second compound 10 µM, first compound 0.1 µM
[33] = second compound 10 µM, first compound 0.316 µM
[34] = second compound 10 µM, first compound 1 µM
[35] = second compound 10 µM, first compound 3.16 µM
[36] = second compound 10 µM, first compound 10 µM
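Further: spheroids exposed to compounds for 7 days.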
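Wherever viability, T/C is given: 100% = DMSO vehicle-treated spheroids.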

CC(=O)O[C@H]1C(=O)[C@@]2(C)[C@H]([C@H](OC(=O)c3ccccc3)[C@]3(O)C[C@H](OC(=O)[C@H](O)[C@@H](NC(=O)c4ccccc4)c4ccccc4)C(C)=C1C3(C)C)[C@]1(OC(C)=O)CO[C@@H]1C[C@@H]2O + Nc1ccc(C#CCN(C(=O)Cc2ncc(C(F)(F)F)cc2C(F)(F)F)c2ccc(F)cc2)nn1
active: viability, T/C (second compound 0.0316 µM, first compound 0.00949 µM) 5.03% | viability, T/C (second compound 0.0316 µM, first compound 0.03 µM) 3.67% | viability, T/C (second compound 0.0316 µM, first compound 0.0949 µM) 3.6% | viability, T/C (second compound 0.0316 µM, first compound 0.3 µM) 4.54% | viability, T/C (second compound 0.0316 µM, first compound 0.949 µM) 3.38% | viability, T/C (second compound 0.0316 µM, first compound 3 µM) 3.49% | viability, T/C (second compound 0.1 µM, first compound 0.00949 µM) 4.54% | viability, T/C (second compound 0.1 µM, first compound 0.03 µM) 3.69% | viability, T/C (second compound 0.1 µM, first compound 0.0949 µM) 3.4% | viability, T/C (second compound 0.1 µM, first compound 0.3 µM) 3.32% | viability, T/C (second compound 0.1 µM, first compound 0.949 µM) 3.65% | viability, T/C (second compound 0.1 µM, first compound 3 µM) 3.64% | viability, T/C (second compound 0.316 µM, first compound 0.00949 µM) 4.71% | viability, T/C (second compound 0.316 µM, first compound 0.03 µM) 3.72% | viability, T/C (second compound 0.316 µM, first compound 0.0949 µM) 3.26% | viability, T/C (second compound 0.316 µM, first compound 0.3 µM) 3.47% | viability, T/C (second compound 0.316 µM, first compound 0.949 µM) 3.51% | viability, T/C (second compound 0.316 µM, first compound 3 µM) 3.52% | viability, T/C (second compound 1 µM, first compound 0.00949 µM) 4.2% | viability, T/C (second compound 1 µM, first compound 0.03 µM) 4.2% | viability, T/C (second compound 1 µM, first compound 0.0949 µM) 3.64% | viability, T/C (second compound 1 µM, first compound 0.3 µM) 3.16% | viability, T/C (second compound 1 µM, first compound 0.949 µM) 3.49% | viability, T/C (second compound 1 µM, first compound 3 µM) 3.91% | viability, T/C (second compound 3.16 µM, first compound 0.00949 µM) 3.91% | viability, T/C (second compound 3.16 µM, first compound 0.03 µM) 3.81% | viability, T/C (second compound 3.16 µM, first compound 0.0949 µM) 3.99% | viability, T/C (second compound 3.16 µM, first compound 0.3 µM) 3.89% | viability, T/C (second compound 3.16 µM, first compound 0.949 µM) 3.75% | viability, T/C (second compound 3.16 µM, first compound 3 µM) 3.61% | viability, T/C (second compound 10 µM, first compound 0.00949 µM) 4.68% | viability, T/C (second compound 10 µM, first compound 0.03 µM) 3.73% | viability, T/C (second compound 10 µM, first compound 0.0949 µM) 3.81% | viability, T/C (second compound 10 µM, first compound 0.3 µM) 3.76% | viability, T/C (second compound 10 µM, first compound 0.949 µM) 3.38% | viability, T/C (second compound 10 µM, first compound 3 µM) 3.83%
> 8.02: pIC50 (second compound 0.0316 µM) | pIC50 (second compound 0.1 µM) | pIC50 (second compound 0.316 µM) | pIC50 (second compound 1 µM) | pIC50 (second compound 3.16 µM) | pIC50 (second compound 10 µM)

COc1cc(C2c3cc4c(cc3C(OC3OC5COC(C)OC5C(O)C3O)C3COC(=O)C23)OCO4)cc(OC)c1O (stereo unspecified) + Nc1ccc(C#CCN(C(=O)Cc2ncc(C(F)(F)F)cc2C(F)(F)F)c2ccc(F)cc2)nn1
7.17: pIC50 (second compound 0.0316 µM)
active: viability, T/C [35] 10.7% | viability, T/C [36] 5.77%
7.08: pIC50 (second compound 3.16 µM)
6.89: pIC50 (second compound 1 µM)
7.12: pIC50 (second compound 0.316 µM)
7.00: pIC50 (second compound 0.1 µM)
inactive: viability, T/C [1] 67.2% | viability, T/C [2] 43.9% | viability, T/C [3] 15.4% | viability, T/C [4] 24.5% | viability, T/C [5] 13.7% | viability, T/C [6] 6.78% | viability, T/C [7] 100% | viability, T/C [8] 50.4% | viability, T/C [9] 18% | viability, T/C [10] 20.8% | viability, T/C [11] 12.4% | viability, T/C [12] 7.13% | viability, T/C [13] 88% | viability, T/C [14] 38.7% | viability, T/C [15] 15.3% | viability, T/C [16] 24.4% | viability, T/C [17] 13.6% | viability, T/C [18] 4.94% | viability, T/C [19] 79.9% | viability, T/C [20] 59.5% | viability, T/C [21] 16.7% | viability, T/C [22] 19.8% | viability, T/C [23] 11.6% | viability, T/C [24] 5.6% | viability, T/C [25] 74.6% | viability, T/C [26] 47.3% | viability, T/C [27] 17.4% | viability, T/C [28] 22.4% | viability, T/C [29] 12% | viability, T/C [30] 6.2% | viability, T/C [31] 71.9% | viability, T/C [32] 42.7% | viability, T/C [33] 18.8% | viability, T/C [34] 13.1%
7.13: pIC50 (second compound 10 µM)

COc1cccc2c1C(=O)c1c(O)c3c(c(O)c1C2=O)CC(O)(C(=O)CO)CC3OC1CC(N)C(O)C(C)O1 (stereo unspecified) + Nc1ccc(C#CCN(C(=O)Cc2ncc(C(F)(F)F)cc2C(F)(F)F)c2ccc(F)cc2)nn1
> 7.50: pIC50 (second compound 0.0316 µM) | pIC50 (second compound 0.1 µM) | pIC50 (second compound 0.316 µM) | pIC50 (second compound 1 µM) | pIC50 (second compound 3.16 µM) | pIC50 (second compound 10 µM)
inactive: viability, T/C [1] 21.8% | viability, T/C [2] 21.2% | viability, T/C [7] 18.1% | viability, T/C [8] 21.5% | viability, T/C [13] 21.1% | viability, T/C [14] 17.4% | viability, T/C [19] 21.6% | viability, T/C [20] 22.7% | viability, T/C [25] 17.3% | viability, T/C [26] 15.6% | viability, T/C [31] 18.4% | viability, T/C [32] 21.1%
active: viability, T/C [3] 5.37% | viability, T/C [4] 0.34% | viability, T/C [5] 0.13% | viability, T/C [6] 0.41% | viability, T/C [9] 6.2% | viability, T/C [10] 0.54% | viability, T/C [11] 0.2% | viability, T/C [12] 0.48% | viability, T/C [15] 6.38% | viability, T/C [16] 0.38% | viability, T/C [17] 0.13% | viability, T/C [18] 0.65% | viability, T/C [21] 5.1% | viability, T/C [22] 0.6% | viability, T/C [23] 0.16% | viability, T/C [24] 0.62% | viability, T/C [27] 5.54% | viability, T/C [28] 0.25% | viability, T/C [29] 0.19% | viability, T/C [30] 0.51% | viability, T/C [33] 4.32% | viability, T/C [34] 0.29% | viability, T/C [35] 0.26% | viability, T/C [36] 0.52%
